In patent US7122624B2, “Parathyroid hormone receptor ligands” (The United States of America as represented by the …, priority 1999, dated 2006):
No end group written: not given here.

What was measured:
PTH2 receptor [1] = target: T1, PTH2 receptor (Homo sapiens, UniProt P49190); assay: Radioligand displacement binding to HEK293 cell membranes expressing the human PTH2 receptor
Method: (§1) In these assays the binding of a range of concentrations of an unlabeled ligand was measured by displacement of radioligand binding. Three methods were employed. An assay employing centrifugation to separate bound and free radioligand was used to accurately measure ligand binding parameters. A higher-throughput method employing rapid filtration was used to generate comparative ligand binding data. […] In these assays a very low concentration of radioligand was used so that the IC50 closely approximates the ligand affinity.
(§2) In the centrifugation assay cell membranes (45–50 μg), radioligand (100,000–300,000 cpm) and unlabeled ligand were incubated in a final volume of 1 ml assay buffer (20 mM HEPES, 100 mM NaCl, 1 mM EDTA, 3 mM MgSO4 pH 7.5, supplemented with 0.3% non-fat dried milk powder, 100 μM AEBSF and 1 μg/ml bacitracin) for two hours at 21° C. Membranes were collected at 18,000×g, the surface of the pellet gently washed and the radioactivity counted as described in Examples. […] Less than 20% of the total radioligand added was bound within the membrane pellet. […] (Greater than 50% of the total radioligand was bound if all the membrane in the incubation was from transfected cells).
(§3) For inhibition of radioligand binding, y is the cpm bound at a given unlabeled ligand concentration, min is non-specific binding (measured in the presence of a high concentration of the unlabeled version of the radiolabeled ligand) and max is total binding (measured in the absence of unlabeled ligand).
(§4) Binding was measured in the presence of 10 μM GTPγS to minimize complications arising from receptor-G-protein coupling, such as pseudo-irreversible binding of the agonist radioligand.
(§5) A similar assay design was used for the PTH1 and PTH2 receptor, in which radiolabeled agonist binding was displaced by the unlabeled ligands in the presence of 10 μM GTPγS. Briefly, cell membranes (45 μg), radioligand (50,000 cpm) and unlabeled ligand were incubated in a final volume of 1 ml assay buffer (20 mM HEPES, 100 mM NaCl, 1 mM EDTA, 3 mM MgSO4 pH 7.5, supplemented with 0.3% non-fat dried milk powder, 100 μM (4-(2-aminoethyl))-benzenesulfonylflouride (AEBSF), 1 μg/ml bacitracin and 10 μM GTPγS) for two hours at 21° C. Membranes were collected at 18,000×g, the surface of the pellet gently washed and the radioactivity counted as described in Examples. […] To prevent greater than 20% of the total radioligand added from binding to the membranes, 15–20 μg of membranes from transfected cells were used, made up to 45 μg with membranes from non-transfected cells.

human PTH1 receptor [2] = target: T2, human PTH1 receptor (Homo sapiens, UniProt Q03431); assay: Intracellular calcium concentration in Fluo-4-loaded HEK293 cells expressing the human PTH1 receptor; format: cell-based; parameters: expressed in transfected cells
T2 sequence (Q03431 27-593): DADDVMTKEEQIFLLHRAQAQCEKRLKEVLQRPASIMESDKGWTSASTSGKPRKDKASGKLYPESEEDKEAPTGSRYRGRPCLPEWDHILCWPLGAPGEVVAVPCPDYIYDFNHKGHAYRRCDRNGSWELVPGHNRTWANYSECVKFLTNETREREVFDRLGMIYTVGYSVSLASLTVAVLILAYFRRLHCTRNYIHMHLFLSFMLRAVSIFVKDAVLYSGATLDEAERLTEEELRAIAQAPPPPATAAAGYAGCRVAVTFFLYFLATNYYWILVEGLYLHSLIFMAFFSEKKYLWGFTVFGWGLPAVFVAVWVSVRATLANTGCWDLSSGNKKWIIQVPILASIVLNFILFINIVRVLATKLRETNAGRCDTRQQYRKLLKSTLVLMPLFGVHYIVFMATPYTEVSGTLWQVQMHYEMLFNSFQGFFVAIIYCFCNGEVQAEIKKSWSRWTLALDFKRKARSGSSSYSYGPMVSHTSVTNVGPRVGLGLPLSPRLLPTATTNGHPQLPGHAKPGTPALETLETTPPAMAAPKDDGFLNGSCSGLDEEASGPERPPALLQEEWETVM
Method: HEK293 cells stably expressing the PTH1 receptor were seeded in wells of a 96-well plate at 100,000 cells per well. The following day, medium was removed and the cells washed once with 0.1 ml Dulbecco's phosphate buffered saline containing 1 mM Ca^2+ and 1 mM Mg^2+ (DPBS). Cells were then loaded with 5 μM Fluo-4 acetoxymethyl ester, with 0.1% (w/v) Pluronic F-127 and 2.5 mM probenecid in DPBS for 1 hour at 37° C. Following two washes with DPBS supplemented with 0.1% BSA, cells were incubated in 0.1 ml of the same buffer for 30 min at 37° C. This buffer was then removed and 50 μl pre-warmed DPBS with BSA added. Baseline fluorescence was then measured for 80 sec at 37° C. in a Cytofluor 4,000 multiwell plate fluorimeter (PerSpective Biosystems, Framington, Mass.) (excitation wavelength […], emission wavelength […]). Test agents were then added and fluorescence monitored as before. Fluorescence was measured in duplicate wells of cells for each experimental condition. Cytosolic free calcium concentration ([Ca^2+]i) was calculated using the equation: [Ca^2+]i=KD(F−Fmin)/(Fmax−F) where KD is the ion dissociation constant (345 nM) for the indicator and F the fluorescence signal in arbitrary units. Fmax (maximum fluorescence at Ca^2+-saturation of the indicator) was determined by addition of 130 μM ionomycin and Fmin (background fluorescence) measured after addition of 20 mM EGTA.

rat PTH1 receptor = target: T3, rat PTH1 receptor (Rattus norvegicus, UniProt P25961); assay: cAMP accumulation in COS-7 cells transiently expressing the rat PTH1 receptor; format: cell-based; details: 3.2 μM TIP(7–39), agonist rPTH(1–34); read-out: pKB as concentration (converted)
T3 construct: expressed in transfected cells; host or cells: COS-7 (transient)
T3 sequence (P25961 27-591): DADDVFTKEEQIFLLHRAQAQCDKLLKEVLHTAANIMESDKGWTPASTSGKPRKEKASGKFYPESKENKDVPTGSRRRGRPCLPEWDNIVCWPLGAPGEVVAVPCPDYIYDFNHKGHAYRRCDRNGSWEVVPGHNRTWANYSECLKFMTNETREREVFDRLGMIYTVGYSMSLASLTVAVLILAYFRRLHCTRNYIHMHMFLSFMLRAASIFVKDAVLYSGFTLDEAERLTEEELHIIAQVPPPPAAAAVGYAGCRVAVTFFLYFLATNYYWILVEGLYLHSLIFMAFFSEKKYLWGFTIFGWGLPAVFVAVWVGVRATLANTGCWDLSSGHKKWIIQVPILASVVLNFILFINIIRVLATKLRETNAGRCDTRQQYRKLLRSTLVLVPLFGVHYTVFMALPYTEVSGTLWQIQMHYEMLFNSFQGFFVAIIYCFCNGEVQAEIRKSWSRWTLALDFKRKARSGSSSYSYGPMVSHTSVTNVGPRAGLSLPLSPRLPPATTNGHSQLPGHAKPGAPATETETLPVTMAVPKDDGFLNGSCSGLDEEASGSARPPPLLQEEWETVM

human PTH1 receptor [3] = target: T2, human PTH1 receptor; assay: cAMP accumulation in HEK293 cells stably expressing the human PTH1 receptor (293PTH1); format: cell-based; parameters: expressed in transfected cells; details: 293PTH1 cells, cAMP
PTH2 receptor [4] = target: T1, PTH2 receptor; assay: cAMP accumulation in HEK293 cells stably expressing the human PTH2 receptor (293PTH2); format: cell-based; parameters: expressed in transfected cells; details: 293PTH2 cells
Method: (§6) COS-7 cells were grown as previously described in Clark et al. For cAMP accumulation assays COS-7 cells were transfected as previously described in Clark et al. except that transfections were performed in 10 cm tissue culture dishes using 10 μg of plasmid DNA. The cells were transferred following trypsinization to 96-well plates at a density of 50,000 cells/well the following day. Cells were used for cAMP accumulation assays three days after transfection.
(§7) Ligand-stimulated accumulation of cAMP was measured as described in Examples, using a radioimmunoassay to quantify cAMP (Clark et al., supra).
For cAMP accumulation data y is the amount of cAMP produced at a given peptide concentration, min is the cAMP level in the absence of ligand and max is the maximum level produced. […] Statistical comparison of multiple means was performed initially by single-factor analysis of variance followed by post-hoc analysis with the Newman-Keuls test. Statistical comparison of two means was performed using a two-tailed Student's t-test.

human PTH1 receptor [5] = target: T2, human PTH1 receptor; assay: cAMP accumulation in COS-7 cells transiently expressing the human PTH1 receptor; details: for Kb: pKB as concentration
Method: as §6, §7
Slightly different procedures were used depending on the experimental paradigm. […] This buffer was removed and replaced with 40 μl fresh buffer. Test agents were added in a volume of 10 μl and the cells incubated for an additional 40 min at 37° C. The assay was then terminated by the addition of 50 μl 0.1 N HCl, 0.1 mM CaCl2. […] After a further 40 minutes at 37° C. the assay was terminated as described above. […] The buffer was removed and the following solutions added sequentially: 30 μl buffer containing plasma, 10 μl antagonist in buffer and 10 μl rPTH(1–34) in buffer. The cells were incubated at 37° C. for 40 minutes prior to assay termination. Human plasma was prepared by addition of EDTA to whole blood at a final concentration of 10 mM followed by centrifugation at 1,000×g for 10 minutes. The plasma supernatant was collected and stored in aliquots at −80° C. before use. cAMP was quantified using a RIA as previously described (Clark et al., supra).
For cAMP accumulation data y is the amount of cAMP produced at a given peptide concentration, min is the cAMP level in the absence of ligand, max is the maximum level produced and K is the log EC50.
The pA2 was subsequently converted to a pKB value by fixing n at unity in the linear regression analysis.

[6] = target: T4, C-terminal hemaglutinin-tagged human PTH1 receptor (Homo sapiens, UniProt Q03431); assay: cAMP accumulation in COS-7 cells expressing a C-terminal hemaglutinin-tagged human PTH1 receptor; format: cell-based
T4 sequence (Q03431 27-593): T2 sequence (Q03431 27-593)

human PTH1 receptor [7] = target: T2, human PTH1 receptor; assay: Radioligand displacement binding to HEK293 cell membranes expressing the human PTH1 receptor
Method: as §1, §2, §3, §4, §5

T1 sequence (P49190 25-550): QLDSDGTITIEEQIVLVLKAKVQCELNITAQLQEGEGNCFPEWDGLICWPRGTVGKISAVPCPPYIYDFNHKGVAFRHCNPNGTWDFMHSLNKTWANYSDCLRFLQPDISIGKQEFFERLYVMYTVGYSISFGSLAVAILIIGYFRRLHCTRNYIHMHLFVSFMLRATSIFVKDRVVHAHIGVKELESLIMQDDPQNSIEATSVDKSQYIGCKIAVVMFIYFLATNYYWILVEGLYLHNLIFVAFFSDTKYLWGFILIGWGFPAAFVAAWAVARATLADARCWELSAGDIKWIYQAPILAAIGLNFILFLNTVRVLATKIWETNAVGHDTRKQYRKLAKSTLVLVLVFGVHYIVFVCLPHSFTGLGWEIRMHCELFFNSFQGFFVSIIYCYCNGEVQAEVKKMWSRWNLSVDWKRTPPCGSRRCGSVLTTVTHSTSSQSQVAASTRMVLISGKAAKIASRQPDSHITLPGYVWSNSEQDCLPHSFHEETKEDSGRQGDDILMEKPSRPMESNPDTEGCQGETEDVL

DAAFRERARLLAALERRHWLNSYMHKLLVLDAP [TIP(7–39)]
lower affinity than full-length TIP39 (PTH2 receptor [1]; filtration assay, no GTPγS (receptor-G-protein complex)): 70 fold | lower binding potency than full-length TIP39 (PTH2 receptor [1]; presence of 10 μM GTPγS): 32 fold | reduction of peak [Ca2+]i increase (human PTH1 receptor [2]; TIP(7–39) 1 μM against rPTH(1–34) 3 nM): 79±1% | change in [Ca2+]i (human PTH1 receptor [2]; TIP(7–39) 1 μM, rPTH(1–34) 3 nM): No change in [Ca^2+]i | Kb (rat PTH1 receptor): 310 nM | activation of the PTH1 receptor (human PTH1 receptor [3]): did not detectably stimulate cAMP accumulation | ligand-stimulated cAMP accumulation (PTH2 receptor [4]): loss of detectable ligand-stimulated cAMP accumulation | accumulation of cAMP in the absence of agonist (human PTH1 receptor [5]; 240 nM TIP(7–39)): 2.0±0.05 pmol/well | accumulation of cAMP in the absence of agonist (human PTH1 receptor [5]; 760 nM TIP(7–39)): 2.2±0.05 pmol/well | accumulation of cAMP in the absence of agonist (human PTH1 receptor [5]; 2.4 μM TIP(7–39)): 2.5±0.7 pmol/well | effect of human plasma on antagonist potency (human PTH1 receptor [5]; 20% human plasma): did not reduce the antagonist potency | Schild slope (human PTH1 receptor [5]; inhibition of rPTH(1–34)-stimulated cAMP): 0.99±0.24 | Kb (human PTH1 receptor [5]; agonist PTHrP(1–34)): 110 nM | Kb (human PTH1 receptor [5]; agonist rPTH(1–34), Schild analysis): 150 nM | activation of adenylyl cyclase activity [6]: did not detectably activate adenylyl cyclase activity | level of cAMP accumulation ([6]; 3.2 μM TIP(7–39), without ligand 0.95±0.04): 0.91±0.04 pmol/well | greater selectivity for the PTH1 receptor than [D-Tryp12, Tyr34]PTH(7–34) or PTHrP(7–34) (human PTH1 receptor [7]; PTH1 over PTH2 receptor, 10 μM GTPγS): 5.5 fold | higher affinity than TIP39 (human PTH1 receptor [7]; filtration assay, no GTPγS): 5.6 fold | higher affinity than TIP39 (human PTH1 receptor [7]; presence of 10 μM GTPγS): 12 fold | affinity for the PTH1 receptor (human PTH1 receptor [7]; summary statement): < 10 nM
